Data: US10167262B2, “Herbicidal substituted 3-arylpyrazoles” (FMC CORPORATION, priority 2014, dated 2019)

Legend:
Format in all cases: in vivo
[1] = test system: barnyardgrass (Echinochloa crus-galli); test: Test B flooded paddy test, plant response rating 0-100; conditions: Flood, 250 g ai/ha; scale 0 to 100 (0 no effect, 100 complete control); 13 to 15 days
Summary of the method: (§1)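 Flooded 3 cm over soil; compound into paddy water; depth kept constant. Greenhouse 13–15 d.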

[2] = test system: ducksalad (Heteranthera limosa); test: as above; conditions: Flood, 250 g ai/ha; scale 0 to 100 (0 no effect, 100 complete control); 13 to 15 days
Summary of the method: as §1

[3] = test system: rice (Oryza sativa); test: as above; conditions: Flood, 250 g ai/ha; scale 0 to 100 (0 no effect, 100 complete control); 13 to 15 days
Summary of the method: as §1

[4] = test system: sedge, umbrella (small-flower umbrella sedge, Cyperus difformis); test: as above; conditions: Flood, 250 g ai/ha; scale 0 to 100 (0 no effect, 100 complete control); 13 to 15 days
Summary of the method: as §1

[5] = test system: barnyardgrass (Echinochloa crus-galli); test: Test C pre-/postemergence greenhouse test, plant response rating 0-100; conditions: Postemergence; for Plant response rating, Barnyardgrass: scale 0 to 100
Summary of the method: (§2)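 Formulated in solvent with surfactant, test chemicals were sprayed on seeded loam/sand pots and, concurrently, on young plants 2–18 cm tall. Evaluation: visual, versus controls, day 13–15.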

[6] = test system: oilseed rape (Brassica napus); test: as above; conditions: Postemergence; for Plant response rating, Oilseed Rape: scale 0 to 100
Summary of the method: as §2

[7] = test system: waterhemp (common waterhemp, Amaranthus rudis); test: as above
Summary of the method: as §2

[8] = test system: Italian ryegrass (Lolium multiflorum); test: Test E pre-/postemergence greenhouse test, plant response rating 0-100; conditions: scale 0 to 100; for Plant response rating, Ryegrass, Italian: Postemergence; for Ryegrass, Italian plant response rating: Preemergence
Summary of the method: (§3)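 Greenhouse response on a 0 (none) to 100 (complete control) scale, assessed 14 to 21 days post-treatment. Soil-applied preemergence on silt loam; foliar postemergence on plants 2–18 cm high.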

[9] = test system: wild poinsettia (Euphorbia heterophylla); test: as above; conditions: scale 0 to 100; for Plant response rating, Poinsettia, Wild: Postemergence; for Poinsettia, Wild plant response rating: Preemergence
Summary of the method: as §3

[10] = test system: waterhemp_RES2, (ALS & HPPD resistant common waterhemp, Amaranthus rudis); test: Test E postemergence greenhouse test, plant response rating 0-100; conditions: scale 0 to 100
Description: At the same time, plants from these crop and weed species and also waterhemp_RES1, (ALS & Triazine resistant common waterhemp, Amaranthus rudis), and waterhemp_RES2, (ALS & HPPD resistant common waterhemp, Amaranthus rudis) were planted in pots containing Redi-Earth® planting medium (Scotts Company, 14111 Scottslawn Road, Marysville, Ohio 43041) comprising spaghnum peat moss, vermiculite, wetting agent and starter nutrients were treated with postemergence applications of test chemicals formulated in the same manner. Plants ranged in height from 2 to 18 cm for postemergence treatments (1- to 4-leaf stage).
Treated plants and controls were maintained in a greenhouse for 14 to 21 days, after which time all species were compared to controls and visually evaluated. Plant response ratings, summarized in Table E, are based on a scale of 0 to 100 where 0 is no effect and 100 is complete control. A dash (-) response means no test result.

[11] = Postemergence, 250 g ai/ha, scale 0 to 100

`O=C(c1ccccc1)c1cn(S(=O)(=O)CCl)nc1-c1cc(Cl)cc(Cl)c1` [Compound 1] was tested, and the “Plant response rating, Barnyardgrass” value [1] was 0, the “Plant response rating, Ducksalad” value [2] was 0 and the “Plant response rating, Rice” value [3] was 0. For the same compound, the “Plant response rating, Sedge, Umbrella” value [4] was 0, the “Plant response rating (0 to 100), Barnyardgrass” value ([5]; 31 g ai/ha) was 0 and the “Plant response rating (0 to 100), Barnyardgrass” value ([5]; 62 g ai/ha) was 0. For the same compound, the “Plant response rating, Barnyardgrass” value ([5]; 125 g ai/ha) was 0, the “Plant response rating, Barnyardgrass” value ([5]; 250 g ai/ha) was 0 and the “Plant response rating (0 to 100), Oilseed Rape” value ([6]; 62 g ai/ha) was 50. For the same compound, the “Plant response rating (0 to 100), Oilseed Rape” value ([6]; 125 g ai/ha) was 80, the “Plant response rating, Oilseed Rape” value ([6]; 250 g ai/ha) was 95 and the “Plant response rating (0 to 100), Waterhemp” value ([7]; Postemergence, 62 g ai/ha) was 90. For the same compound, the “Plant response rating (0 to 100), Waterhemp” value ([7]; Postemergence, 125 g ai/ha) was 90, the “Plant response rating, Waterhemp” value [7, 11] was 98 and the “Plant response rating, Ryegrass, Italian” value ([8]; 31 g ai/ha) was 0. For the same compound, the “Plant response rating, Ryegrass, Italian” value ([8]; 62 g ai/ha) was 0, the “Plant response rating, Ryegrass, Italian” value ([8]; 125 g ai/ha) was 0 and the “Plant response rating, Ryegrass, Italian” value ([8]; 250 g ai/ha) was 0. The “Plant response rating, Ryegrass, Italian” value ([8]; 500 g ai/ha) was 0, the “Ryegrass, Italian plant response rating” value ([8]; 31 g ai/ha) was 0 and the “Ryegrass, Italian plant response rating” value ([8]; 62 g ai/ha) was 0. For the same compound, the “Ryegrass, Italian plant response rating” value ([8]; 125 g ai/ha) was 0, the “Ryegrass, Italian plant response rating” value ([8]; 250 g ai/ha) was 0 and the “Ryegrass, Italian plant response rating” value ([8]; 500 g ai/ha) was 0. The “Plant response rating, Poinsettia, Wild” value ([9]; 31 g ai/ha) was 0, the “Plant response rating, Poinsettia, Wild” value ([9]; 62 g ai/ha) was 0 and the “Plant response rating, Poinsettia, Wild” value ([9]; 125 g ai/ha) was 0. The “Plant response rating, Poinsettia, Wild” value ([9]; 250 g ai/ha) was 0, the “Plant response rating, Poinsettia, Wild” value ([9]; 500 g ai/ha) was 0 and the “Poinsettia, Wild plant response rating” value ([9]; 31 g ai/ha) was 0. For the same compound, the “Poinsettia, Wild plant response rating” value ([9]; 62 g ai/ha) was 0, the “Poinsettia, Wild plant response rating” value ([9]; 125 g ai/ha) was 0 and the “Poinsettia, Wild plant response rating” value ([9]; 500 g ai/ha) was 0. The “Plant response rating, Waterhemp_RES2” value ([10]; 31 g ai/ha) was 40, the “Plant response rating, Waterhemp_RES2” value ([10]; 125 g ai/ha) was 35 and the “Plant response rating, Waterhemp_RES2” value ([10]; 250 g ai/ha) was 98. For the same compound, the “Plant response rating, Waterhemp_RES2” value ([10]; 500 g ai/ha) was 98.

With `O=C(c1ccccc1)c1cn(S(=O)(=O)C(F)(F)F)nc1-c1cc(Cl)cc(Cl)c1` [Compound 2] the “Plant response rating, Barnyardgrass” value [1] was 0, the “Plant response rating, Ducksalad” value [2] was 0 and the “Plant response rating, Rice” value [3] was 0. For the same compound, the “Plant response rating, Sedge, Umbrella” value [4] was 0, the “Plant response rating (0 to 100), Barnyardgrass” value ([5]; 62 g ai/ha) was 0 and the “Plant response rating, Barnyardgrass” value ([5]; 125 g ai/ha) was 0. For the same compound, the “Plant response rating, Barnyardgrass” value ([5]; 250 g ai/ha) was 0, the “Plant response rating, Barnyardgrass” value ([5]; 500 g ai/ha) was 0 and the “Plant response rating (0 to 100), Oilseed Rape” value ([6]; 62 g ai/ha) was 70. The “Plant response rating (0 to 100), Oilseed Rape” value ([6]; 125 g ai/ha) was 70, the “Plant response rating, Oilseed Rape” value ([6]; 250 g ai/ha) was 90 and the “Plant response rating, Oilseed Rape” value ([6]; 500 g ai/ha) was 90. For the same compound, the “Plant response rating (0 to 100), Waterhemp” value ([7]; Postemergence, 62 g ai/ha) was 85, the “Plant response rating (0 to 100), Waterhemp” value ([7]; Postemergence, 125 g ai/ha) was 85 and the “Plant response rating, Waterhemp” value [7, 11] was 100. The “Plant response rating, Waterhemp” value ([7]; Postemergence, 500 g ai/ha, scale 0 to 100) was 100, the “Plant response rating, Waterhemp” value ([7]; Preemergence, 0 to 100 scale (0 no effect, 100 complete control), rate 500 g ai/ha) was 100 and the “Plant response rating, Ryegrass, Italian” value ([8]; 31 g ai/ha) was 0. For the same compound, the “Plant response rating, Ryegrass, Italian” value ([8]; 62 g ai/ha) was 0, the “Plant response rating, Ryegrass, Italian” value ([8]; 125 g ai/ha) was 0 and the “Plant response rating, Ryegrass, Italian” value ([8]; 250 g ai/ha) was 0. For the same compound, the “Plant response rating, Ryegrass, Italian” value ([8]; 500 g ai/ha) was 0, the “Ryegrass, Italian plant response rating” value ([8]; 31 g ai/ha) was 0 and the “Ryegrass, Italian plant response rating” value ([8]; 62 g ai/ha) was 0. For the same compound, the “Ryegrass, Italian plant response rating” value ([8]; 125 g ai/ha) was 0, the “Ryegrass, Italian plant response rating” value ([8]; 250 g ai/ha) was 0 and the “Ryegrass, Italian plant response rating” value ([8]; 500 g ai/ha) was 0. The “Plant response rating, Poinsettia, Wild” value ([9]; 31 g ai/ha) was 0, the “Plant response rating, Poinsettia, Wild” value ([9]; 62 g ai/ha) was 0 and the “Plant response rating, Poinsettia, Wild” value ([9]; 125 g ai/ha) was 0. For the same compound, the “Plant response rating, Poinsettia, Wild” value ([9]; 250 g ai/ha) was 0, the “Plant response rating, Poinsettia, Wild” value ([9]; 500 g ai/ha) was 0 and the “Poinsettia, Wild plant response rating” value ([9]; 62 g ai/ha) was 0. The “Poinsettia, Wild plant response rating” value ([9]; 125 g ai/ha) was 0, the “Poinsettia, Wild plant response rating” value ([9]; 250 g ai/ha) was 0 and the “Poinsettia, Wild plant response rating” value ([9]; 500 g ai/ha) was 0. The “Plant response rating, Waterhemp_RES2” value ([10]; 31 g ai/ha) was 0, the “Plant response rating, Waterhemp_RES2” value ([10]; 62 g ai/ha) was 65 and the “Plant response rating, Waterhemp_RES2” value ([10]; 125 g ai/ha) was 85. The “Plant response rating, Waterhemp_RES2” value ([10]; 250 g ai/ha) was 95 and the “Plant response rating, Waterhemp_RES2” value ([10]; 500 g ai/ha) was 98.
